# Assays:
# astrocytes or neurons = settings: cited from earlier work
# phosphorylated tau = settings: 12-month-old mice, intranasal ~0.07 mg/kg/day for 3 months; cited from earlier work
# tau transgenic mice = settings: daily intranasal treatment over several months; cited from earlier work
# [1] = test system: cerebellar granule neurons; settings: cited from earlier work
# amnestic MCI = settings: 15 mg twice daily, intranasal, vs placebo; cited from earlier work
# ADNP+/- mice = settings: cited from earlier work
# [2] = test system: Cortical neurons co-cultured with PEE astrocytes; settings: cited from earlier work
# STOP+/- mice = settings: daily nasal application; cited from earlier work
# [3] = test system: known cell surface receptors; assay: Screening NAP on receptor panels; type: binding
# Procedure: Fluorescent NAP was found inside cells, in the vicinity of microtubules when it was incubated with cells at 4° C. and at low pH (conditions that exclude receptor-mediated endocytocis) (I. Divinski et al. J Biol Chem 279, 28531-28538 (2004)). Furthermore, NAP activity is independent of its chirality (D. E. Brenneman et al. J Pharmacol Exp Ther 309, 1190-1197 (2004)) and NAP shares sequence similarities with protein sequences that have membrane permeability properties (I. Divinski et al. J Biol Chem 279, 28531-28538 (2004)).
# [4] = test system: primary neuronal cell cultures; settings: cited from earlier work
# anti-ADNP (NAP) antibody = settings: incubation of antibody with excess NAP peptide; cited from earlier work
# [5] = test system: schizophrenia-related cognitive impairment; settings: 5 mg once daily and 15 mg twice daily vs placebo, 56 patients; cited from earlier work
# cancer cell division = settings: unlike paclitaxel; cited from earlier work
# [6] = test system: gestational day 8.0 mouse embryos; settings: cited from earlier work
# P19 cells = assay: P19 cell neuro-differentiation, Q-PCR of differentiation markers; type: cell-based, mouse; settings: eight days differentiation, 1 μM RA; FIG. 2
# Procedure: Mouse Embryonic teratocarcinoma cells were obtained from the American Type Culture Collection (ATCC, Bethesda, Md.); an initial control batch was a kind gift of Dr. Roi Atlas and Professor Irith Ginzburg, the Weizmann Institute of Science, Rehovot, Israel. P19 cells were grown in minimal essential medium (alpha-MEM) containing 5% fetal calf serum, 100 U/ml penicillin and 0.1 mg/ml streptomycin (Biological Industries, Beit Haemek, Israel) in a 5% CO2 incubator at 37° C. […]
# Samples with same amount of total RNA were used to synthesize single-strand cDNA with SuperScript […] RNase H Reverse Transcriptase (Invitrogen, Carlsbad, Calif., USA) and a random hexamers adaptor primer according to the manufacturer's instructions. […] ADNP and ADNP2 expression levels in Schizophrenia were determined using specific primers for human ADNP and ADNP2, and normalized to TATA box binding protein. […] RNA from non-differentiated and differentiated P19 cells was isolated and the expression of tubulin β3 and glial fibrillary acidic protein (GFAP) was determined to confirm neuronal differentiation. ADNP and ADNP2 expression levels in P19 cells were determined using specific primers for mouse ADNP and ADNP2. […] The efficiencies of all primers used were calculated as a precursory step using standard curves, according to the equation: E (efficiency)=10^(−1/slope)−1×100 and were near 100% for all primers. […]
# ADNP [7] = assay: Transgene shutoff by doxycycline in rTg(tau(P301L))4510 mice, western blots; type: in vivo, mouse; settings: treated with doxycycline; untreated ratio is 3; FIG. 3D
# Procedure: Nuclear ADNP expression was assessed using mouse monoclonal antibody directed against ADNP (1:300 dilution; BD Bioscience) at 150 KD, actin was used as a control. […] C. […] Tau expression was measured in the cytoplasmic fraction; ADNP was measured in nuclear fractions. D. Western blots showing expression level of ADNP in transgenic and non-transgenic mice after doxycycline treatment.
# β-tubulin = settings: NAP affinity columns; cited from earlier work
# ADNP [8] = settings: 120 min 75% xenon and 25% oxygen vs 75% nitrogen and 25% oxygen; RT-PCR, western blot, immunohistochemistry; cited from earlier work
# cell cultures = settings: cited from earlier work
molecule,measurement,setting,value
"CC[C@H](C)[C@H](NC(=O)[C@H](CO)NC(=O)[C@@H](NC(=O)[C@@H]1CCCN1C(=O)[C@H](C)NC(=O)[C@@H](N)CC(N)=O)C(C)C)C(=O)N1CCC[C@H]1C(=O)N[C@@H](CCC(N)=O)C(=O)O [NAP, Asn-Ala-Pro-Val-Ser-Ile-Pro-Gln]",microtubule depolymerization by nocodazole,astrocytes or neurons; neurons,reversed
same,tubulin zinc sheet formation and cell death,astrocytes or neurons; treatment with zinc chloride,protected
same,decrease in phosphorylated tau at Ser202/Thr205 and Thr231 residues,phosphorylated tau,70%
same,short-term memory,tau transgenic mice,improving
same,"tau phosphorylation and ""NFTs""",tau transgenic mice,reduced
same,axon outgrowth,"[1]; cerebellar granule neurons, via Fyn kinase and Cas phosphorylation",potentiated axon outgrowth
same,cognitive tests that primarily assessed attention and working memory function,amnestic MCI,general pattern of improvement
same,cognitive deficits,ADNP+/- mice; 0.5 μg/mouse/day,partially ameliorated
same,tau hyperphosphorylation,ADNP+/- mice; 0.5 μg/mouse/day,reduced
same,amount of active GSK-3β,ADNP+/- mice; NAP treatment,reduced
same,"dendritic and axonal growth or branching, density of synaptic structures",[2]; SNAP-25 and synaptophysin staining,significantly increased
same,CREB phosphorylation,[2],increase
same,activity of ERK and Akt,[2]; time-dependent,significantly stimulated
same,object recognition,STOP+/- mice,significantly improved to STOP+/+ performance level
same,open field locomotor activity,STOP+/- mice,significantly decreased
same,spatial memory,STOP+/- mice,ameliorated
same,binding to known cell surface receptors,[3],did not reveal any significant binding
same,neurite outgrowth,[4],induced neurite outgrowth
same,reduction of fluorescence staining,anti-ADNP (NAP) antibody,> 80%
same,"UCSD Performance-based Skills Assessment (UPSA) test, secondary endpoint",[5],statistically significant positive treatment effect
same,tests that measured visual learning and working memory,[5],Numerical positive treatment effects
same,verbal learning,[5],favoring placebo
same,cancer cell division,cancer cell division,does not affect
same,percentage of embryos that had begun to close their neural folds,[6]; co-incubation with ethanol and NAP,significantly increased
same,alcohol-induced serotonergic loss during brain development,"[6]; in vivo, caudal raphe",protected
"CC1=C(/C=C/C(C)=C/C=C/C(C)=C/C(=O)O)C(C)(C)CCC1 [RA, all-trans retinoic acid]","glial fibrillar acidic protein (GFAP) expression, Q-PCR",P19 cells,up-regulation
same,"tubulinβ3 expression, Q-PCR",P19 cells,up-regulation
C[C@H]1c2cccc(O)c2C(=O)C2=C(O)[C@]3(O)C(=O)C(C(N)=O)=C(O)[C@@H](N(C)C)[C@@H]3[C@@H](O)[C@@H]21 [doxycycline],ADNP protein expression ratio between the Tg and non-Tg mice,ADNP [7],1
CCO [ethanol],IC50,"[1]; by inhibiting NAP activation of Fyn kinase and Cas, read-out: IC(50), block of NAP-mediated axon outgrowth",17 mM
CC(=O)O[C@H]1C(=O)[C@@]2(C)[C@H]([C@H](OC(=O)c3ccccc3)[C@]3(O)C[C@H](OC(=O)[C@H](O)[C@@H](NC(=O)c4ccccc4)c4ccccc4)C(C)=C1C3(C)C)[C@]1(OC(C)=O)CO[C@@H]1C[C@@H]2O [paclitaxel],NAP-tubulin interaction,β-tubulin,reduced
[Xe] [xenon],ADNP expression in neonatal rat brain,ADNP [8],differentially expressed
"recombinant ADNP: recombinant activity-dependent neuroprotective protein (protein, UniProt Q9H2P0 1-1102, looked up) Activity-dependent …: MFQLPVNNLGSLRKARKTVKKILSDIGLEYCKEHIEDFKQFEPNDFYLKNTTWEDVGLWDPSLTKNQDYRTKPFCCSACPFSSKFFSAYKSHFRNVHSEDFENRILLNCPYCTFNADKKTLETHIKIFHAPNASAPSSSLSTFKDKNKNDGLKPKQADSVEQAVYYCKKCTYRDPLYEIVRKHIYREHFQHVAAPYIAKAGEKSLNGAVPLGSNAREESSIHCKRCLFMPKSYEALVQHVIEDHERIGYQVTAMIGHTNVVVPRSKPLMLIAPKPQDKKSMGLPPRIGSLASGNVRSLPSQQMVNRLSIPKPNLNSTGVNMMSSVHLQQNNYGVKSVGQGYSVGQSMRLGLGGNAPVSIPQQSQSVKQLLPSGNGRSYGLGSEQRSQAPARYSLQSANASSLSSGQLKSPSLSQSQASRVLGQSSSKPAAAATGPPPGNTSSTQKWKICTICNELFPENVYSVHFEKEHKAEKVPAVANYIMKIHNFTSKCLYCNRYLPTDTLLNHMLIHGLSCPYCRSTFNDVEKMAAHMRMVHIDEEMGPKTDSTLSFDLTLQQGSHTNIHLLVTTYNLRDAPAESVAYHAQNNPPVPPKPQPKVQEKADIPVKSSPQAAVPYKKDVGKTLCPLCFSILKGPISDALAHHLRERHQVIQTVHPVEKKLTYKCIHCLGVYTSNMTASTITLHLVHCRGVGKTQNGQDKTNAPSRLNQSPSLAPVKRTYEQMEFPLLKKRKLDDDSDSPSFFEEKPEEPVVLALDPKGHEDDSYEARKSFLTKYFNKQPYPTRREIEKLAASLWLWKSDIASHFSNKRKKCVRDCEKYKPGVLLGFNMKELNKVKHEMDFDAEWLFENHDEKDSRVNASKTADKKLNLGKEDDSSSDSFENLEEESNESGSPFDPVFEVEPKISNDNPEEHVLKVIPEDASESEEKLDQKEDGSKYETIHLTEEPTKLMHNASDSEVDQDDVVEWKDGASPSESGPGSQQVSDFEDNTCEMKPGTWSDESSQSEDARSSKPAAKKKATMQGDREQLKWKNSSYGKVEGFWSKDQSQWKNASENDERLSNPQIEWQNSTIDSEDGEQFDNMTDGVAEPMHGSLAGVKLSSQQA",protection against severe oxidative stress and Aβ toxicity,cell cultures,potent protection

# Reference: patent US9518994B2, “Method for diagnosing and monitoring schizophrenia and tauopathies” (Ramot at Tel Aviv University, priority 2010, dated 2016)
